Measurements as given in PubChem BioAssay AID330 (DTP/NCI, 2004).
Several values for one entry are separate records, joined by “and”; a condition that tells them apart may be missing. Identical values can stand only once. Toxic doses and inconclusive results are not listed.

System: P388 leukemia ip, CD2F1 mice, survival T/C
Assay: NCI In Vivo Anticancer Drug Screen. Data for tumor model P388 Leukemia (intraperitoneal) in CD2F1 (CDF1) mice
Details: endpoint: median survival time, higher = longer survival
Method in brief: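 Mice carrying the transplanted tumor received test compound or vehicle. Survival was recorded in each group, and the value is the treated-group measurement divided by that of the vehicle-treated control group.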

[1] = dose: 100.0 mg/kg/injection, schedule: Q04DX002 (ip), vehicle: saline with Tween-80
[2] = dose: 200.0 mg/kg/injection, schedule: Q04DX002 (ip), vehicle: saline with Tween-80
[3] = dose: 400.0 mg/kg/injection, schedule: Q04DX002 (ip), vehicle: saline with Tween-80
[4] = dose: 50.0 mg/kg/injection, schedule: Q01DX009 (ip), vehicle: saline with Tween-80
[5] = dose: 200.0 mg/kg/injection, schedule: Q01DX009 (ip), vehicle: saline with Tween-80
[6] = dose: 100.0 mg/kg/injection, schedule: Q01DX009 (ip), vehicle: saline with Tween-80

## CC(C)=CC1C(/C(C)=C/CCCCC(=O)O)C1(C)C (stereo unspecified)
[1]
  T/C: 101 % of control
[2]
  T/C: 94 % of control
[3]
  T/C: 96 % of control

## CN=S(=O)(OCCCCCOS(=O)(=NC)c1ccccc1)c1ccccc1 (stereo unspecified)
[4]
  T/C: 124 % of control
[5]
  T/C: 158 % of control and 170 % of control

## COC(=O)c1ccc(C(=O)OC)c2nc3cc(C)c(C)cc3nc12
dose: 60.0 mg/kg/injection, schedule: Q01DX005 (ip), vehicle: Klucel (hydroxypropylcellulose) (HPC)
  T/C: 96 % of control
dose: 120.0 mg/kg/injection, schedule: Q01DX005 (ip), vehicle: Klucel (hydroxypropylcellulose) (HPC)
  T/C: 98 % of control

## COc1ccc2[nH]cc(/C=C(/C)c3ccncc3)c2c1
dose: 100.0 mg/kg/injection, schedule: Q01DX001 (ip), vehicle: saline with Tween-80
  T/C: 102 % of control
dose: 200.0 mg/kg/injection, schedule: Q01DX001 (ip), vehicle: saline with Tween-80
  T/C: 108 % of control
dose: 400.0 mg/kg/injection, schedule: Q01DX001 (ip), vehicle: saline with Tween-80
  T/C: 108 % of control

## O=C(Nc1cccc2ccccc12)NN1C(=O)CSC1=S
[4]
  T/C: 90 % of control
[6]
  T/C: 93 % of control
[5]
  T/C: 91 % of control

## CCOC(=O)C(=CNc1cccc2cccnc12)C(=O)OCC
[1]
  T/C: 97 % of control
[2]
  T/C: 99 % of control
[3]
  T/C: 99 % of control

## O=C(CBr)c1cccc(OC(=O)c2ccccc2)c1
dose: 6.25 mg/kg/injection, schedule: Q01DX009 (ip), vehicle: saline with Tween-80
  T/C: 108 % of control
dose: 12.5 mg/kg/injection, schedule: Q01DX009 (ip), vehicle: saline with Tween-80
  T/C: 108 % of control

## Oc1ccccc1C(Nc1nc2ccccc2s1)c1ccc2cccnc2c1O (stereo unspecified)
dose: 100.0 mg/kg/injection, schedule: Q01DX009 (ip), vehicle: saline
  T/C: 90 % of control
dose: 100.0 mg/kg/injection, schedule: Q04DX003 (ip), vehicle: saline
  T/C: 95 % of control
dose: 200.0 mg/kg/injection, schedule: Q01DX009 (ip), vehicle: saline
  T/C: 100 % of control
dose: 200.0 mg/kg/injection, schedule: Q04DX003 (ip), vehicle: saline
  T/C: 91 % of control
dose: 400.0 mg/kg/injection, schedule: Q01DX009 (ip), vehicle: saline
  T/C: 90 % of control
dose: 400.0 mg/kg/injection, schedule: Q04DX003 (ip), vehicle: saline
  T/C: 91 % of control

## O=c1n(-c2ccccc2)c(=O)n2c(=O)n(-c3ccccc3)c(=O)n12
dose: 50.0 mg/kg/injection, schedule: Q01DX009 (ip), vehicle: Klucel (hydroxypropylcellulose) (HPC)
  T/C: 105 % of control
dose: 100.0 mg/kg/injection, schedule: Q01DX009 (ip), vehicle: Klucel (hydroxypropylcellulose) (HPC)
  T/C: 93 % of control
dose: 200.0 mg/kg/injection, schedule: Q01DX009 (ip), vehicle: Klucel (hydroxypropylcellulose) (HPC)
  T/C: 89 % of control

## Clc1cc2nc[nH]c2cc1Cl
[4]
  T/C: 101 % of control
[6]
  T/C: 90 % of control

## C#CC(C)C(C(C)=O)C(C)=O.[C-]#[O+].[C-]#[O+].[C-]#[O+].[C-]#[O+].[C-]#[O+].[C-]#[O+].[Co].[Co] (stereo unspecified)
dose: 3.12 mg/kg/injection, schedule: Q01DX005 (ip), vehicle: Klucel (hydroxypropylcellulose) (HPC)
  T/C: 104 % of control
dose: 6.25 mg/kg/injection, schedule: Q01DX005 (ip), vehicle: Klucel (hydroxypropylcellulose) (HPC)
  T/C: 94 % of control
dose: 12.5 mg/kg/injection, schedule: Q01DX005 (ip), vehicle: Klucel (hydroxypropylcellulose) (HPC)
  T/C: 111 % of control

## CSc1nc2ccc(N3C(=O)C=CC3=O)cc2s1
dose: 3.12 mg/kg/injection, schedule: Q01DX009 (ip), vehicle: Klucel (hydroxypropylcellulose) (HPC)
  T/C: 102 % of control
dose: 6.25 mg/kg/injection, schedule: Q01DX009 (ip), vehicle: Klucel (hydroxypropylcellulose) (HPC)
  T/C: 105 % of control
dose: 12.5 mg/kg/injection, schedule: Q01DX009 (ip), vehicle: Klucel (hydroxypropylcellulose) (HPC)
  T/C: 101 % of control

## NCCCn1[nH]c(=O)c2ccncc2c1=O
dose: 100.0 mg/kg/injection, schedule: Q04DX002 (ip), vehicle: saline
  T/C: 97 % of control
dose: 200.0 mg/kg/injection, schedule: Q04DX002 (ip), vehicle: saline
  T/C: 97 % of control
dose: 400.0 mg/kg/injection, schedule: Q04DX002 (ip), vehicle: saline
  T/C: 95 % of control

## Cn1c(=O)c(C#N)c2n(C)c3ccccc3n2c1=O
dose: 60.0 mg/kg/injection, schedule: Q01DX005 (ip), vehicle: saline with Tween-80
  T/C: 93 % of control
dose: 120.0 mg/kg/injection, schedule: Q01DX005 (ip), vehicle: saline with Tween-80
  T/C: 89 % of control
dose: 240.0 mg/kg/injection, schedule: Q01DX005 (ip), vehicle: saline with Tween-80
  T/C: 89 % of control
